Measurements published in patent US11739098B2 (BRISTOL-MYERS SQUIBB COMPANY, priority 2017, dated 2023).

How the values were obtained:
Assay type in all cases: cell-based
[1] = molecular target: T1, human TLR7 (Homo sapiens, UniProt Q9NYK1); experiment: TLR7 inhibition reporter assay (HEK-Blue cells, SEAP reporter, gardiquimod stimulation); details: HEK-Blue cells overexpressing human TLR7, SEAP reporter, gardiquimod 7.5 μM
T1 construct: host or cells: HEK-Blue cells (HEK293-derived reporter line)
T1 sequence (Q9NYK1 27-1049): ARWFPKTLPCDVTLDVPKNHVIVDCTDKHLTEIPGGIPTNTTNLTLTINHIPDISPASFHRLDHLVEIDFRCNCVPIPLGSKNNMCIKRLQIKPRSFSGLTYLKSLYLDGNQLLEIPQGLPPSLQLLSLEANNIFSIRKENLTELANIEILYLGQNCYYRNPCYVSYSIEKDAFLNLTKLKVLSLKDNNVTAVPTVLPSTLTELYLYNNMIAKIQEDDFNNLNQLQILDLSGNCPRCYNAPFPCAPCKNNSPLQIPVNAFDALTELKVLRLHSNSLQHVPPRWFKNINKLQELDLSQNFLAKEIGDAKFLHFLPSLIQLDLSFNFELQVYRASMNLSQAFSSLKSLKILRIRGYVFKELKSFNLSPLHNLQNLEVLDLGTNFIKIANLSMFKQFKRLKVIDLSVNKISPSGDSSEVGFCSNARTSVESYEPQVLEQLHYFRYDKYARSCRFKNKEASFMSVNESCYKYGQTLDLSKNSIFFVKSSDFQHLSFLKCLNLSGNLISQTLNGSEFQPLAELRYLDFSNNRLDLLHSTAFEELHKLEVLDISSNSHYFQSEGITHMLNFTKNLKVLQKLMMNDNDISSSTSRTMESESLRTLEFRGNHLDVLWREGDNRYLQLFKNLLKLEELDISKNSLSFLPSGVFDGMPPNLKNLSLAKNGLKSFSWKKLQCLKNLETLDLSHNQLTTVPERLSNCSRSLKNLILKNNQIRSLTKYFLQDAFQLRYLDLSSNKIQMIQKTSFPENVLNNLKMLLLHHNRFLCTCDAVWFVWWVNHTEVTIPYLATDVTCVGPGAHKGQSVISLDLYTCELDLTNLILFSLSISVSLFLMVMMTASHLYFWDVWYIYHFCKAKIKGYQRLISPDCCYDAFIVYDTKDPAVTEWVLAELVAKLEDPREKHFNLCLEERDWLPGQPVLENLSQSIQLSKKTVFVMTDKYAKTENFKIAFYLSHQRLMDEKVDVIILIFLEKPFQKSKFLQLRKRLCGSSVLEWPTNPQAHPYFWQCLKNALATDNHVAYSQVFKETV
How it was run: (§1)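 Cells seeded per well (15000 TLR7, 20,000 TLR8, 25,000 TLR9); compound added over 0.05 nM–50 μM for 30 min at room temperature; agonist added (TLR7 gardiquimod 7.5 μM, TLR8 R848 15.9 μM, TLR9 ODN2006 5 nM); 22 h at 37 °C; SEAP measured; percent inhibition calculated.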

[2] = molecular target: T2, human TLR8 (Homo sapiens, UniProt Q9NR97); experiment: TLR8 inhibition reporter assay (HEK-Blue cells, SEAP reporter, R848 stimulation); details: HEK-Blue cells overexpressing human TLR8, SEAP reporter, R848 15.9 μM
T2 construct: host or cells: HEK-Blue cells (HEK293-derived reporter line)
T2 sequence (Q9NR97 27-1041): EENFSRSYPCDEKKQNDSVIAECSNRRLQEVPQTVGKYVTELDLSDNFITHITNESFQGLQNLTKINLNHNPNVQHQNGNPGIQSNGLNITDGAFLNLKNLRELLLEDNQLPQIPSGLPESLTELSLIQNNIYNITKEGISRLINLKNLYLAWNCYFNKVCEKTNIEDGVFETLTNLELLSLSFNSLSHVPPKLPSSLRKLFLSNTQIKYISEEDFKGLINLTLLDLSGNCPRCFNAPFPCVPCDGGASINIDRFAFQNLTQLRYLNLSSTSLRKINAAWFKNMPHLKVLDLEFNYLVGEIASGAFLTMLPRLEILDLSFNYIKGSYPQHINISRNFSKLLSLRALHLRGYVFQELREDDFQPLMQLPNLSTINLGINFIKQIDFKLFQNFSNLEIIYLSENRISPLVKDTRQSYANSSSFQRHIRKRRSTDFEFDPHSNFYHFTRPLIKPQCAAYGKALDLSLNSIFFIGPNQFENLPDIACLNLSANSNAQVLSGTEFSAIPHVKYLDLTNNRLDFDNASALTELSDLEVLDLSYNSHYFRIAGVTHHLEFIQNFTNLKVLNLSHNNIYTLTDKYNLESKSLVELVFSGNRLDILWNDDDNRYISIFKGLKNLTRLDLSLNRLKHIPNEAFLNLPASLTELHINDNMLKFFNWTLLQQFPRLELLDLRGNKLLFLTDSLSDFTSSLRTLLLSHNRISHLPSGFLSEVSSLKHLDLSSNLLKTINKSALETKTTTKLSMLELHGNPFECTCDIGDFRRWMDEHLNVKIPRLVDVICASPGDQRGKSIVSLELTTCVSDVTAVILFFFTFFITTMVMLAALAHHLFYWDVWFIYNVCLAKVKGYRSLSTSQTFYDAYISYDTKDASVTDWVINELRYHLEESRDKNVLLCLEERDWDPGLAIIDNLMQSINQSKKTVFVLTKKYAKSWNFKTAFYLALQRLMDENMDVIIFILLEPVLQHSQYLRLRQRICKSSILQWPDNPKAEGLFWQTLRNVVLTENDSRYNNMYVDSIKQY
How it was run: as §1

[3] = molecular target: T3, human TLR9 (Homo sapiens, UniProt Q9NR96); experiment: TLR9 inhibition reporter assay (HEK-Blue cells, SEAP reporter, ODN2006 stimulation); details: HEK-Blue cells overexpressing human TLR9, SEAP reporter, ODN2006 5 nM
T3 construct: host or cells: HEK-Blue cells (HEK293-derived reporter line)
T3 sequence (Q9NR96 26-1032): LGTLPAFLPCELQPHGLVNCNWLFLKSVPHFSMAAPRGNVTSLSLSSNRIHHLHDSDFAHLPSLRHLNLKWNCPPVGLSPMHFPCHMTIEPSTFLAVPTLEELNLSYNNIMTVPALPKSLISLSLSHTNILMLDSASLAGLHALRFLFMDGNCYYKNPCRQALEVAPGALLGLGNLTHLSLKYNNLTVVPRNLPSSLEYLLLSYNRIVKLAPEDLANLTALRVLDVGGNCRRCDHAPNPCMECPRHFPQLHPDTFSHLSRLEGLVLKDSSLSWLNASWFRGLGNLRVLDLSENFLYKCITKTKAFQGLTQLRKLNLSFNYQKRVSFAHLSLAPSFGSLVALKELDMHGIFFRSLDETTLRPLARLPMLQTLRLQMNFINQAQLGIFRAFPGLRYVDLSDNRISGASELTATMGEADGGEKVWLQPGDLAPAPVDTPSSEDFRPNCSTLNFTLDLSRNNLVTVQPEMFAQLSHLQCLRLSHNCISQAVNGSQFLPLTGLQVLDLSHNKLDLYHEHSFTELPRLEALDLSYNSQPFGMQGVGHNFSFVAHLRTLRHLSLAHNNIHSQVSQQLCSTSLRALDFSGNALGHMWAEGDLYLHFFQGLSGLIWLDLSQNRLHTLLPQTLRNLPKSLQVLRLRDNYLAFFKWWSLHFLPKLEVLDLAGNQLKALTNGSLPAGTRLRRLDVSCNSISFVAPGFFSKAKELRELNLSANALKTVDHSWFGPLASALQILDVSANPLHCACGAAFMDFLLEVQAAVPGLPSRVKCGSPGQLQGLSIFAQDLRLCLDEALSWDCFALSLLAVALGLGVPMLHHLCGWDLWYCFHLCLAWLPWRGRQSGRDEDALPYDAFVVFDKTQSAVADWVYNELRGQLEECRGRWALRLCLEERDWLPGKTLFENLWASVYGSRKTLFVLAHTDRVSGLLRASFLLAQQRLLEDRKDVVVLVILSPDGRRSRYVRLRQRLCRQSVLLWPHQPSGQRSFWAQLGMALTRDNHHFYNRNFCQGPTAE
How it was run: as §1

IC50 [1] [nM]	IC50 [2] [nM]	IC50 [3] [nM]	SMILES
< 100	100 to 1000	100 to 1000	CN(C)CC(=O)N1CCC(c2ccc3[nH]c(-c4cc(F)c5nccn5c4)c(CC(F)F)c3c2)CC1 [Example 546, 1-(4-(3-(2,2-difluoroethyl)-2-(8-fluoroimidazo[1,2-a]pyridin-6-yl)-1H-indol-5-yl)piperidin-1-yl)-2-(dimethylamino)ethan-1-one]
< 100	< 100	1000 to 50000	Cc1cc(-c2[nH]c3ccc(C4CCNCC4)cc3c2C(C)C)cn2cc(C(=O)N(C)CCO)nc12 [Example 268, N-(2-hydroxyethyl)-6-(3-isopropyl-5-(piperidin-4-yl)-1H-indol-2-yl)-N,8-dimethylimidazo[1,2-a]pyridine-2-carboxamide]
< 100	< 100	100 to 1000	CNC(=O)CN1CCC(c2ccc3[nH]c(-c4cc(OC)n5ncnc5c4)c(C(C)C)c3c2)CC1 [Example 332, 2-(4-(3-isopropyl-2-(5-methoxy-[1,2,4]triazolo[1,5-a]pyridin-7-yl)-1H-indol-5-yl)piperidin-1-yl)-N-methylacetamide]
< 100	< 100	100 to 1000	CNCCN1CCC(c2ccc3[nH]c(-c4ccnc5[nH]ncc45)c(C(C)C)c3c2)C(F)C1 (stereo not drawn) [Example 679, 2-(3-fluoro-4-(3-isopropyl-2-(1H-pyrazolo[3,4-b]pyridin-4-yl)-1H-indol-5-yl)piperidin-1-yl)-N-methylethan-1-amine]
< 100	< 100	100 to 1000	CC(C)c1c(-c2cc(C(F)(F)F)c3nccn3c2)[nH]c2ccc(C3CCN(C(=O)CN(C)C)CC3)cc12 [Example 507, 2-(dimethylamino)-1-(4-(3-isopropyl-2-(8-(trifluoromethyl)imidazo[1,2-a]pyridin-6-yl)-1H-indol-5-yl)piperidin-1-yl)ethan-1-one]
< 100	< 100	1000 to 50000	Cc1cc(-c2[nH]c3ccc(C4CCNCC4)cc3c2C(C)C)nn2ncnc12 [Example 30, 6-(3-isopropyl-5-(piperidin-4-yl)-1H-indol-2-yl)-8-methyl-[1,2,4]triazolo[1,5-b]pyridazine]
< 100	< 100	100 to 1000	CC(C)c1c(-c2cc(N)c3nccn3c2)[nH]c2ccc(C3CCNCC3)cc12 [Example 117, 6-(3-isopropyl-5-(piperidin-4-yl)-1H-indol-2-yl)imidazo[1,2-a]pyridin-8-amine]
< 100	< 100	1000 to 50000	Cc1cc(-c2[nH]c3ccc(C4CCN(C5CCOCC5)CC4)cc3c2C(C)C)nn2ncnc12 [Example 686, 6-(3-isopropyl-5-(1-(tetrahydro-2H-pyran-4-yl)piperidin-4-yl)-1H-indol-2-yl)-8-methyl-[1,2,4]triazolo[1,5-b]pyridazine]
< 100	< 100	1000 to 50000	Cc1ncc(CN2CCC(c3ccc4[nH]c(-c5cn(C)c6ncccc56)c(C(C)C)c4c3)CC2)cn1 [Example 876, 3-(3-isopropyl-5-(1-((2-methylpyrimidin-5-yl)methyl)piperidin-4-yl)-1H-indol-2-yl)-1-methyl-1H-pyrrolo[2,3-b]pyridine]
< 100	< 100	1000 to 50000	Cc1cc2nnnn2cc1-c1[nH]c2ccc(C3CCN(CCS(C)(=O)=O)CC3)cc2c1C(C)C [Example 790, 6-(3-isopropyl-5-(1-(2-(methylsulfonyl)ethyl)piperidin-4-yl)-1H-indol-2-yl)-7-methyltetrazolo[1,5-a]pyridine]
< 100	< 100	100 to 1000	CCc1c(-c2ccnc3[nH]cnc23)[nH]c2ccc(C3CCNCC3)cc12 [Example 59, 7-(3-ethyl-5-(piperidin-4-yl)-1H-indol-2-yl)-3H-imidazo[4,5-b]pyridine]
< 100	< 100	1000 to 50000	Cc1cc(-c2[nH]c3ccc(C4CCN(Cc5cnn[nH]5)CC4)cc3c2C(C)C)cn2nnnc12 [Example 883, 6-(5-(1-((1H-1,2,3-triazol-5-yl)methyl)piperidin-4-yl)-3-isopropyl-1H-indol-2-yl)-8-methyltetrazolo[1,5-a]pyridine]
< 100	< 100	1000 to 50000	Cc1cc(-c2[nH]c3ccc(C4CCN(CC(=O)N(C)C)CC4)cc3c2C(C)C)cc2ccnn12 [Example 442, 2-(4-(3-isopropyl-2-(7-methylpyrazolo[1,5-a]pyridin-5-yl)-1H-indol-5-yl)piperidin-1-yl)-N,N-dimethylacetamide]
< 100	100 to 1000	100 to 1000	CC(C)c1c(-c2ccn3cnnc3c2)[nH]c2ccc(C3CCNCC3)cc12 [Example 83, 7-(3-isopropyl-5-(piperidin-4-yl)-1H-indol-2-yl)-[1,2,4]triazolo[4,3-a]pyridine]
